The subject of one series is high-fat diet obese mice. Kind of series: high-fat diet obesity and fatty liver model. It counts as in vivo, mouse. An excerpt:
Feed B6 mice with a high-fat diet (HFD) to create an obesity model. Divide the animals into three groups: normal diet group, high-fat diet group, and high-fat diet group with INNA1605 (TJ-M2010-5) added at the same time. Conduct three control groups to measure body weight, inguinal and epididymal fat size, liver size, and examine the liver and various adipose tissues of each group.

The nature of series [1]: preclinical safety assessment, intravenous injection. It counts as in vivo. As for the experimental part:
Direct intravenous injection of 30 mg/kg or more will cause elevated liver enzyme toxicity, and it has no toxic effect at 10 mg/kg.

Series [2] has as its system macrophages derived from mouse bone marrow. Put plainly: LPS-induced secretion of inflammatory factors from macrophages, ELISA of supernatant. It counts as cell-based. The conditions noted are these: 30 umol/L 2 hours before LPS 500 ng/ml for 24 hours; FIG. 2. As for the experimental part: macrophage grouping (in vitro):
Cultivate macrophages derived from mouse bone marrow in vitro.
The experiment was divided into 8 groups, namely: • Control group (untreated mouse bone marrow-derived macrophages), • LPS group (500 ng/ml LPS stimulated macrophages for 24 hours), • LPS+TJ-2 group (2 hours before LPS stimulation, administer 30 umol/L TJ-2 drug stimulation), • LPS+TJ-5 group (2 hours before LPS stimulation, administer 30 umol/L TJ-5 drug stimulation), • LPS+TJ-8 group (2 hours before LPS stimulation, administer 30 umol/L TJ-8 drug stimulation), • LPS+TJ-9 group (2 hours before LPS stimulation, administer 30 umol/L TJ-9 drug stimulation), • LPS+TJ-11 group (2 hours before LPS stimulation, administer 30 umol/L TJ-11 drug stimulation), • and LPS+TJ-12 group (2 hours before LPS stimulation, administer 30 umol/L TJ-12 drug stimulation).
After 24 hours of LPS stimulation, the cell culture supernatant was removed and ELISA was performed to detect the concentration of various inflammatory factors in the supernatant.
For orientation: An ELISA detects its analyte on a solid surface through an enzyme-linked reagent.

One compound from patent US20240180898A1, “USE OF AMINOTHIAZOLE DERIVATIVE IN TREATMENT OF IMMUNE INFLAMMATION” (INNAMUNE PHARMACEUTICAL CO. LTD., priority 2021, published 2024) can be followed below.

SMILES strings stand for the structures.

For the compound `O=C(CCN1CCN(Cc2ccccc2)CC1)Nc1nc(-c2ccccc2)cs1` [INNA1605, 3-(4-benzylpiperazine-1-yl)-N-(4-phenylthiazole-2-yl) propionamide], in the series with high-fat diet obese mice (B6 mice, added with high-fat diet, FIG. 37), the “adipose tissue, liver, and body weight” value is “significantly smaller than those of the obese group and close to those of normal mice”. Further, in the series on high-fat diet obese mice (FIG. 25), the “weight of obese mice fed with high-fat diet” value is listed as “significantly reduced the weight of high-fat diet obese mice”. Further, the “lipid droplets in the adipose tissue and liver” value in the series on high-fat diet obese mice (pathological examination, FIG. 38) was “significantly smaller than those of the obese group, and were similar to normal mice”. In series [1] (direct intravenous injection), the “dose causing elevated liver enzyme toxicity” value is recorded as no less than 30 mg/kg and the “dose with no toxic effect” value amounted to 10 mg/kg. In series [1] (preclinical trial results), the “toxicity to the body” value is given as “low toxicity to the body”. Further, in series [2], the “inhibitory effect on inflammatory factors compared among the compounds” value is given as “have the same inhibitory effect on inflammatory factors” and the “secretion of various inflammatory factors in macrophages (IL-1β, Il-6, TNF-α, IL-18, IL-17)” value is on record as “can inhibit the secretion of various inflammatory factors in macrophages”.
